The values below come from patent US12630563B2, “Macrocyclic RIP2-kinase inhibitors” (Oncodesign S.A., priority 2020, dated 2026).

pIC50: −log10 of the molar value.

The target of the test is T1, recombinant hRIPK2 protein (kinase domain aa 1-299-His-tagged) (Homo sapiens, UniProt O43353).
T1 construct: kinase domain aa 1-299-His-tagged; purchased Life Technologies PR7829A
T1 sequence (O43353 1-299): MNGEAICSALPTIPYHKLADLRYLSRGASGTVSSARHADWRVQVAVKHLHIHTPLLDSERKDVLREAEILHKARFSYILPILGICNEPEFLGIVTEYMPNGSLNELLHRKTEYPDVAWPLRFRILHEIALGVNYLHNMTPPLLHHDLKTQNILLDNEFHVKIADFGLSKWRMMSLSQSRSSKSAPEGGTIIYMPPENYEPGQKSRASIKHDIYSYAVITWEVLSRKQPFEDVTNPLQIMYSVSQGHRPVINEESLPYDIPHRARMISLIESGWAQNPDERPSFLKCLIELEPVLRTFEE
In words: RIPK2 AlphaLISA assay (displacement of bead-bound CZC-8004 from hRIPK2). The class given is binding. The following applies: recombinant hRIPK2 kinase domain 10 nM, 2 h at 23° C. Summed up: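 His-tagged kinase domain (10 nM, as diluted) was mixed with compound (0.8% DMSO), acceptor beads bearing the probe CZC-8004 and Ni2+ donor beads. After 2 h at 23 °C, AlphaLISA signal was read. Loss of signal reflects displacement of the probe from RIPK2.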
Background: Bead proximity is the source of the signal in Alpha formats.
As usually defined, the pIC50 is the IC50 on a negative log10 scale, so that one unit is a factor of ten. For `CO[C@@H]1C[C@H]2COc3ccn4ncc(c4n3)-c3cc(cc(OCc4cnn(C)c4)c3)NCCN2C1=O` [Example 46, (12R,14S)-12-methoxy-4-[(1-methyl-1H-pyrazol-4-yl)methoxy]-16-oxa-7,10,20,21,24-pentaazapentacyclo[15.5.2.1^2,6.0^10,^14.0^20,^23]pentacosa-1(23),2,4,6(25),17(24),18,21-heptaen-11-one], the pIC50 is 7.00 to 8.00.

Take `[2H]C([2H])([2H])C([2H])([2H])O[C@@H]1C[C@H]2COc3ccn4ncc(c4n3)-c3cc(cc(OC)c3)NCCN2C1=O` [Example 110, (12R,14S)-12-(H5)ethoxy-4-methoxy-16-oxa-7,10,20,21,24-pentaazapentacyclo[15.5.2. 1^2,6.0^10,^14.0^20,^23]pentacosa-1(23),2,4,6(25),17(24),18,21-heptaen-11-one]: the pIC50 is greater than 8.00. As for `O=C1[C@H](OC2CC2)C[C@H]2COc3ccn4ncc(c4n3)-c3cc(cc(-n4cccn4)c3)NCCN12` [Example 81, (12R,14S)-12-cyclopropoxy-4-(1H-pyrazol-1-yl)-16-oxa-7,10,20,21,24-pentaazapentacyclo[15.5.2. 1^2,6.0^10,^14.0^20,^23]pentacosa-1(23),2(25),3,5,17(24),18,21-heptaen-11-one], the figure is greater than 8.00; as for `CO[C@@H]1C[C@H]2COc3ccn4ncc(c4n3)-c3cc(cc(-c4ncno4)c3)NCCN2C1=O` [Example 109, (12R,14S)-12-methoxy-4-(1,2,4-oxadiazol-5-yl)-16-oxa-7,10,20,21,24-pentaazapentacyclo[15.5.2.1^2,6.0^1°,^14.0^2°,^23]pentacosa-1(23),2(25),3,5,17(24),18,21-heptaen-11-one], greater than 8.00. Turning to `CCO[C@@H]1C[C@H]2COc3ccn4ncc(c4n3)-c3cc(cc(C(=O)N(C)C)c3)NCCN2C1=O` [Example 58, (12R,14S)-12-ethoxy-N,N-dimethyl-11-oxo-16-oxa-7,10,20,21,24-pentaazapentacyclo[15.5.2.1^2,6.0^10,^14.0^20,^23]pentacosa-1(23),2(25),3,5,17(24),18,21-heptaene-4-carboxamide], the pIC50 was greater than 8.00. As for `COc1cc2cc(c1)-c1cnn3ccc(nc13)OC[C@@H]1C[C@@H](OC)C(=O)N1CC(C)N2` (single isomer, unassigned) [Example 105, (8R*,12R,14S)-4,12-dimethoxy-8-methyl-16-oxa-7,10,20,21,24-pentaazapentacyclo[15.5.2.1^2,6.0^1°,^14.0^2°,^23]pentacosa-1(23),2,4,6(25),17(24),18,21-heptaen-11-one], the figure is greater than 8.00; as for `CCO[C@@H]1C[C@H]2COc3ccn4ncc(c4n3)-c3cc(O)cc(c3)NCCN2C1=O` [Example 96, (12R,14S)-12-ethoxy-4-hydroxy-16-oxa-7,10,20,21,24-pentaazapentacyclo[15.5.2.1^2,6.0^1°,^14.0^2°,^23]pentacosa-1(23),2(25),3,5,17(24),18,21-heptaen-11-one], greater than 8.00. As for `COCCO[C@@H]1C[C@H]2COc3nc4c(cnn4cc3OC)-c3cc(O)cc(c3)NCCN2C1=O` [Example 128, (12R,14S)-4-hydroxy-18-methoxy-12-(2-methoxyethoxy)-16-oxa-7,10,20,21,24-pentaazapentacyclo[15.5.2. 1^2,6.0^10,^14.0^20,^23]pentacosa-1(23),2,4,6(25),17(24),18,21-heptaen-11-one], the figure is greater than 8.00; as for `COCCc1cn2ncc3c2nc1OC[C@@H]1C[C@@H](OC)C(=O)N1CCNc1cc(F)cc-3c1` [Example 77, (12R,14S)-4-fluoro-12-methoxy-18-(2-methoxyethyl)-16-oxa-7,10,20,21,24-pentaazapentacyclo[15.5.2.1^2,6.0^1°,^14.0^2°,^23]pentacosa-1(23),2(25),3,5,17(24),18,21-heptaen-11-one], greater than 8.00. As for `CCOc1cc2cc(c1)-c1cnn3cc(OC)c(nc13)OC[C@@H]1C[C@@H](OCCOC)C(=O)N1CCN2` [Example 140, (12R,14S)-4-ethoxy-18-methoxy-12-(2-methoxyethoxy)-16-oxa-7,10,20,21,24-pentaazapentacyclo[15.5.2.1^2,6.0^10,^14.0^20,^23]pentacosa-1(23),2,4,6(25),17(24),18,21-heptaen-11-one], the figure is greater than 8.00; as for `CO[C@@H]1C[C@H]2COc3ccn4ncc(c4n3)-c3cc(cc(F)c3F)NCCN2C1=O` [Example 15, (12R,14S)-3,4-difluoro-12-methoxy-16-oxa-7,10,20,21,24-pentaazapentacyclo[15.5.2.1^2,6.0^10,^14.0^20,^23]pentacosa-1(23),2,4,6(25),17(24),18,21-heptaen-11-one], 7.00 to 8.00. Take `CO[C@@H]1C[C@H]2C(C)Oc3ccn4ncc(c4n3)-c3cc(F)cc(c3)NCCN2C1=O` (relative stereo) [Example 103, E1-(12R,14S,15R*)-4-fluoro-12-methoxy-15-methyl-16-oxa-7,10,20,21,24-pentaazapentacyclo[15.5.2.1^2,6.0^10,^14.0^20,^23]pentacosa-1(23),2,4,6(25),17(24),18,21-heptaen-11-one]: the pIC50 is 7.00 to 8.00. As for `CCO[C@H]1C[C@H]2COc3ccn4ncc(c4n3)-c3cc(cc(OC)c3)NCCN2C1=O` [Example 121, (12S,14S)-12-ethoxy-4-methoxy-16-oxa-7,10,20,21,24-pentaazapentacyclo[15.5.2.1^2,6.0^10,^14.0^20,^23]pentacosa-1(23),2,4,6(25),17(24),18,21-heptaen-11-one], the figure is greater than 8.00; as for `CO[C@@H]1C[C@H]2COc3ccn4ncc(c4n3)-c3cc(cc(OCc4ccccc4)c3)NCCN2C1=O` [Example 14, (12R, 14S)-4-(benzyloxy)-12-methoxy-16-oxa-7,10,20,21,24-pentaazapentacyclo[15.5.2.1^2,6.0^10,14.0^20,^23]pentacosa-1(23),2,4,6(25),17(24),18,21-heptaen-11-one], 7.00 to 8.00; as for `CO[C@@H]1CC2(C)COc3ccn4ncc(c4n3)-c3cc(F)cc(c3)NCCN2C1=O` (single isomer, unassigned) [Example 85], 4.96 to 7.00.

Consider `CCO[C@@H]1C[C@H]2COc3ccn4ncc(c4n3)-c3cc(cc(C(=O)N(C)OC)c3)NCCN2C1=O` [Example 57, (12R,14S)-12-ethoxy-N-methoxy-N-methyl-11-oxo-16-oxa-7,10,20,21,24-pentaazapentacyclo[15.5.2.1^2,6.0^10,^14.0^20,^23]pentacosa-1(23),2(25),3,5,17(24),18,21-heptaene-4-carboxamide], for which the pIC50 is greater than 8.00. For `CCN(C)C(=O)c1cc2cc(c1)-c1cnn3ccc(nc13)OC[C@@H]1C[C@@H](OC)C(=O)N1CCN2` [Example 56, (12R,14S)-N-ethyl-12-methoxy-N-methyl-11-oxo-16-oxa-7,10,20,21,24-pentaazapentacyclo[15.5.2.1^2,6.0^10,^14.0^20,^23]pentacosa-1(23),2,4,6(25),17(24),18,21-heptaene-4-carboxamide], the pIC50 was greater than 8.00. `COc1cc2cc(c1)-c1cnn3ccc(nc13)OC[C@@H]1C[C@@H](OC)C(=O)N1C(C)CN2` (stereo partly drawn) [Example 142, (12R,14S)-4,12-dimethoxy-9-methyl-16-oxa-7,10,20,21,24-pentaazapentacyclo[15.5.2.1^2,6.0^1°,^14.0^2°,^23]pentacosa-1(23),2(25),3,5,17(24),18,21-heptaen-11-one]: the negative-log IC50 (pIC50) is 7.00 to 8.00. The value for `CO[C@@H]1C[C@H]2COc3ccn4ncc(c4n3)-c3cc(cc(-n4cccn4)c3)NCCN2C1=O` [Example 41, (12R,14S)-12-methoxy-4-(1H-pyrazol-1-yl)-16-oxa-7,10,20,21,24-pentaazapentacyclo[15.5.2.1^2,6.0^10,^14.0^20,^23]pentacosa-1(23),2(25),3,5,17(24),18,21-heptaen-11-one] was greater than 8.00; that for `COc1cc2cc(c1)-c1cnn3cc(OC)c(nc13)OC[C@@H]1C[C@@H](OC)C(=O)N1CCN2` [Example 133, (12R,14S)-4,12,18-trimethoxy-16-oxa-7,10,20,21,24-pentaazapentacyclo[15.5.2. 1^2,6.0^10,^14.0^20,^23]pentacosa-1(23),2,4,6(25),17(24),18, 21-heptaen-11-one] was greater than 8.00. As for `CCO[C@@H]1C[C@H]2COc3nc4c(cnn4cc3OC)-c3cc(cc(OC)c3)NCCN2C1=O` [Example 132, (12R,14S)-12-ethoxy-4,18-dimethoxy-16-oxa-7,10,20,21,24-pentaazapentacyclo[15.5.2. 1^2,6.0^10,^14.0^20,^23]pentacosa-1(23),2,4,6(25),17(24),18,21-heptaen-11-one], the figure is greater than 8.00. Consider `COCCc1cn2ncc3c2nc1OC[C@@H]1C[C@@H](OC)C(=O)N1CCNc1cc-3cc(-n2cccn2)c1` [Example 78, (12R,14S)-12-methoxy-18-(2-methoxyethyl)-4-(1H-pyrazol-1-yl)-16-oxa-7,10,20,21,24-pentaazapentacyclo[15.5. 2.1^2,6.0^10,^14.0^20,^23]pentacosa-1(23),2(25),3,5,17(24),18, 21-heptaen-11-one], for which the pIC50 was greater than 8.00. The value for `CO[C@H]1C[C@H]2COc3ccn4ncc(c4n3)-c3cc(F)cc(c3)NCCN2C1=O` [Example 25, (12S,14S)-4-fluoro-12-methoxy-16-oxa-7,10,20,21,24-pentaazapentacyclo[15.5.2.1^2,6.0^10,^14.0^20,^23]pentacosa-1(23),2(25),3,5,17(24),18,21-heptaen-11-one] was greater than 8.00. The value for `COCCO[C@@H]1C[C@H]2COc3nc4c(cnn4cc3OC)-c3cc(F)cc(c3)NCCN2C1=O` [Example 129, (12R,14S)-4-fluoro-18-methoxy-12-(2-methoxyethoxy)-16-oxa-7,10,20,21,24-pentaazapentacyclo[15.5.2.1^2,6.0^10,^14.0^20,^23]pentacosa-1(23),2,4,6(25),17(24),18,21-heptaen-11-one] was greater than 8.00.
